In patent US20120142685A1, “ORGANIC COMPOUNDS” (priority 2007, published 2012):
Like-named read-outs stand apart in the source and are kept apart here.

Assays:
protein kinase D3 (PKD3) = target: T1, protein kinase D3 (PKD3) (Homo sapiens, UniProt O94806); test: PKD3 TR-FRET (LANCE) kinase assay; assay type: biochemical
T1 construct: This assay is performed with full length wild-type enzyme that is purchased from Invitrogen; purchased Invitrogen
T1 sequence (O94806 1-890): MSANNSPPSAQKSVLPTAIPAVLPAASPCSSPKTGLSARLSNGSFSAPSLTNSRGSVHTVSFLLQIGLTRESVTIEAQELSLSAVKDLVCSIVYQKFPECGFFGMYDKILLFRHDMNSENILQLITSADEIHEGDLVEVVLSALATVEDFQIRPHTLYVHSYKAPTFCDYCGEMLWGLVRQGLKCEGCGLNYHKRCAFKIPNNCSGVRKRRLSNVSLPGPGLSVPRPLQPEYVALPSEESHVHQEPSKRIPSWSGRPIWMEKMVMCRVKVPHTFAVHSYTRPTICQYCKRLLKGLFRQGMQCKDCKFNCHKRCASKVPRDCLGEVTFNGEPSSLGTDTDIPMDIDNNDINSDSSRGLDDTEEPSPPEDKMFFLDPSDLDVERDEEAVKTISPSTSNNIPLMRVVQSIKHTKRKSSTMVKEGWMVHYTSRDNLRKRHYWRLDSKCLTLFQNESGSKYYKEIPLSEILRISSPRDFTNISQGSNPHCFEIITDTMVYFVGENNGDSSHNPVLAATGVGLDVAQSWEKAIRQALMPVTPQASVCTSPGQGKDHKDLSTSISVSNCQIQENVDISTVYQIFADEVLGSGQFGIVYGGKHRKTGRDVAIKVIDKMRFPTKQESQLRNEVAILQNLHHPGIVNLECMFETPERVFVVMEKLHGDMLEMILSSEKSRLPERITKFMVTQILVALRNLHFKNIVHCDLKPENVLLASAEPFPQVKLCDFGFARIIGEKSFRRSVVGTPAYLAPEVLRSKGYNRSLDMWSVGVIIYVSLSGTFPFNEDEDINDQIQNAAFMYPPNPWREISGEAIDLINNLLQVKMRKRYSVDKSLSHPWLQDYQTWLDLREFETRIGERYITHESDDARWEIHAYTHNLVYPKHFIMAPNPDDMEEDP
Source text: The assay to measure protein kinase D3 (PKD3) activity is a time-resolved fluorescence resonance transfer (TR-FRET) assay using PerkinElmer's LANCE™ technology. In this case, a biotinylated syntide-2 peptide is used as the substrate in this reaction. Phosphorylation of the syntide-2 substrate is detected by a specific antibody that recognizes the phosphorylated peptide. A second fluorophore, APC, is conjugated to streptavidin that binds the biotinylated syntide-2 peptide. […] Therefore, when the europium labeled secondary antibody binds on the phosphorylated peptide, it is brought into close contact with the APC and excites this fluorophore.
This assay is performed with full length wild-type enzyme that is purchased from Invitrogen. The reaction buffer consists of 35 mM Tris-HCl pH7.5, 5 mM MgCl2, 0.02% Tween-20, 20 μM ATP, 1 mM DTT and 0.2 μg/mL PKD3 enzyme. The enzyme reaction is initiated by the addition of 2 μM syntide-2 peptide substrate and the reaction carried out for 50 minutes at room temperature. The reaction is stopped by a stop/detection buffer consisting of 50 mM EDTA, 0.18 mg/mL rabbit polyclonal anti-phospho syntide-2 antibody, 0.5 nM europium labeled anti-rabbit IgG and 10 nM streptavidin conjugated APC. After a one hour incubation with the stop/detection buffer, the reaction is read on an Envision 2100 Reader using a LANCET™ Eu/APC dual protocol. […] IC50 values are calculated using an Activity Base (IDBS) software program.

HDAC5 nuclear export = HDAC5 nuclear export assay in neonatal rat ventricular myocytes (GFP-HDAC5, PGF2α stimulated); assay type: cell-based; conditions: Ventricular myocyte, 2 h
Experimental: Compounds are evaluated in the HDAC5 nuclear […] assay, a 384-well plate-based assay that enables high throughput screening (HTS) to identify small molecules that block agonist-dependent nuclear export of HDAC5. This assay employs the Cellomics High Content Imaging platform (Giuliano & Taylor 1998) and adenovirus encoding green fluorescent protein (GFP) tagged HDAC5. Neonatal rat ventricular myocytes (NRVMs) are infected with GFP-HDAC5 encoding virus and plated on gelatin-coated 384-well dishes. Cells are exposed to compound and stimulated with an prostaglandin (PGF2α), which is a potent stimulus for HDAC5 nuclear export. Following two hours of stimulation, cells are fixed and GFP-HDAC5 localization quantified using the Cellomics system, which provides a read-out of relative fluorescence intensity in the cytoplasmic versus nuclear compartment.

[1] = full length wild-type enzyme, 20 μM ATP, read-out: Inhibitory Activity PKD3
[2] = NRVMs, GFP-HDAC5, PGF2α stimulation two hours, read-out: Inhibitory Activity HDAC
[3] = read-out: Inhibitory Activity HDAC (nM)

IC50 (protein kinase D3 (PKD3); [1]) | IC50 (HDAC5 nuclear export; [2]) | Compound | IC50 (protein kinase D3 (PKD3)) | IC50 (HDAC5 nuclear export; [3])
227 nM |  | CNc1cc(-c2cc3cnccc3c(NCCCO)n2)ccn1 [Example 1] |  | 
 |  | CNc1cc(-c2cc3cnccc3c(NC)n2)ccn1 [Example 2, 1-Methylamino-3-(2-methylaminopyridin-4-yl)-[2,6]-naphthyridine] | 450 nM | 
0.3 nM | 32 nM | c1cc2c(N3CCNCC3)nc(-c3ccnc(NC4CCCCC4)c3)cc2cn1 [Example 3, Cyclohexyl-[4-(1-piperazin-1-yl-[2,6]naphthyridin-3-yl)pyridin-2-yl]amine] |  | 
339 nM |  | OCCNc1nc(-c2ccnc(NC3CCCCC3)c2)cc2cnccc12 [Example 5, 2-[3-(2-Cyclohexylaminopyridin-4-yl)-[2,6]naphthyridin-1-ylamino]ethanol] |  | 
120 nM |  | CC(C)Nc1cc(-c2cc3cnccc3c(NCCO)n2)ccn1 [Example 6, 2-[3-(2-Isopropylaminopyridin-4-yl)-[2,6]naphthyridin-1-ylamino]ethanol] |  | 
62 nM | 86 nM | COc1cccc(Nc2cc(-c3cc4cnccc4c(NCCO)n3)ccn2)c1 [Example 7] |  | 
58 nM |  | CN(C)CCNc1nc(-c2ccnc(NC3CCCCC3)c2)cc2cnccc12 [Example 8, N-[3-(2-Cyclohexylaminopyridin-4-yl)-[2,6]naphthyridin-1-yl]-N′,N′-dimethylethane-1,2-diamine] |  | 
39 nM | 756 nM | CN(C)CCNc1nc(-c2ccnc(Nc3ccccc3)c2)cc2cnccc12 [Example 9, N,N-Dimethyl-N′-[3-(2-phenylaminopyridin-4-yl)-[2,6]naphthyridin-1-yl]-ethane-1,2-diamine] |  | 
83 nM | 203 nM | NC(=O)C1CCN(c2nc(-c3ccnc(NC4CCCCC4)c3)cc3cnccc23)CC1 [Example 10, 1-[3-(2-Cyclohexylaminopyridin-4-yl)-[2,6]naphthyridin-1-yl]piperidine-4-carboxylic acid amide] |  | 
23 nM |  | CC(=O)N1CCN(c2nc(-c3ccnc(NC4CCCCC4)c3)cc3cnccc23)CC1 [Example 11, 1-{4-[3-(2-Cyclohexylaminopyridin-4-yl)-[2,6]naphthyridin-1-yl]piperazin-1-yl}ethanone] |  | 
21 nM |  | CN(C)CC1CCN(c2nc(-c3ccnc(NC4CCCCC4)c3)cc3cnccc23)CC1 [Example 12, Cyclohexyl-{4-[1-(4-dimethylaminomethylpiperidin-1-yl)-[2,6]naphthyridin-3-yl]pyridin-2-yl}amine] |  | 
 |  | CN1CCN(c2nc(-c3ccnc(NC4CCCCC4)c3)cc3cnccc23)CC1 [Example 13, Cyclohexyl-{4-[1-(4-methylpiperazin-1-yl)-[2,6]naphthyridin-3-yl]pyridin-2-yl}amine] | 1 nM | 206 nM
1 nM | 36 nM | c1cc2c(NC3CCNC3)nc(-c3ccnc(NC4CCCCC4)c3)cc2cn1 (centres unmarked) [Example 14, [3-(2-Cyclohexylaminopyridin-4-yl)-[2,6]naphthyridin-1-yl]pyrrolidin-3-ylamine] |  | 
2 nM | 60 nM | O=C(NCCO)C1CCN(c2nc(-c3ccnc(NC4CCOCC4)c3)cc3cnccc23)CC1 [Example 16, 1-{3-[2-(Tetrahydropyran-4-ylamino)pyridin-4-yl]-[2,6]naphthyridin-1-yl}piperidine-4-carboxylic acid (2-hydroxyethyl)amide] |  | 
0.4 nM | 12 nM | Cn1ccc(Nc2cc(-c3cc4cnccc4c(N4CCC(C(N)=O)CC4)n3)ccn2)n1 [Example 19, 1-{3-[2-(1-Methyl-1H-pyrazol-3-ylamino)pyridin-4-yl]-[2,6]naphthyridin-1-yl}piperidine-4-carboxylic acid amide] |  | 
9 nM | 361 nM | Cn1ccc(Nc2cc(-c3cc4cnccc4c(N4CCC5(CCNC5=O)CC4)n3)ccn2)n1 [Example 20, 8-{3-[2-(1-Methyl-1H-pyrazol-3-ylamino)pyridin-4-yl]-[2,6]naphthyridin-1-yl}-2,8-diaza-spiro[4.5]decan-1-one] |  | 
10 nM | 371 nM | COCCNc1cc(-c2cc3cnccc3c(N3CCNCC3)n2)ccn1 [Example 21, (2-Methoxyethyl)-[4-(1-piperazin-1-yl-[2,6]naphthyridin-3-yl)-pyridin-2-yl]amine] |  | 

Compound | IC50 (protein kinase D3 (PKD3); [1]) | IC50 (HDAC5 nuclear export; [2]) | IC50 (protein kinase D3 (PKD3)) | IC50 (HDAC5 nuclear export; [3])
c1ccc(Nc2cc(-c3cc4cnccc4c(N4CCNCC4)n3)ccn2)cc1 [Example 4, Phenyl-[4-(1-piperazin-1-yl-[2,6]naphthyridin-3-yl)pyridin-2-yl]amine] | 8 nM |  |  | 2 nM
c1cc2c(NC3CCCNC3)nc(-c3ccnc(NC4CCCCC4)c3)cc2cn1 (centres unmarked) [Example 15, [3-(2-Cyclohexylaminopyridin-4-yl)-[2,6]naphthyridin-1-yl]piperidin-3-ylamine] | 19 nM |  |  | 605 nM
O=C(NC1CC1)C1CCN(c2nc(-c3ccnc(NC4CCOCC4)c3)cc3cnccc23)CC1 [Example 17, 1-{3-[2-(Tetrahydropyran-4-ylamino)pyridin-4-yl]-[2,6]naphthyridin-1-yl}piperidine-4-carboxylic acid cyclopropylamide] | 3 nM |  |  | 88 nM
CCNC(=O)N1CCN(c2nc(-c3ccnc(Nc4ccn(C)n4)c3)cc3cnccc23)CC1 [Example 18, 4-{3-[2-(1-Methyl-1H-pyrazol-3-ylamino)pyridin-4-yl]-[2,6]naphthyridin-1-yl}piperazine-1-carboxylic acid ethylamide] | 30 nM |  |  | 534 nM
